Key:
[1] = test system: antigen-induced anaphylactic bronchoconstriction in passively sensitized guinea-pig; assay: Anaphylactic bronchoconstriction in passively sensitized guinea-pig, i.v. test; format: in vivo; details: i.v. 2 mg/kg, 1 min prior to EA challenge (10 mg/kg)
Experimental: (§1) (iii) Effect on anaphylactic bronchoconstriction in passively sensitized guinea-pig
Male guinea-pigs (350-450 g) were passively sensitized with intravenous (i.v.) injection of 0.125 ml rabbit anti-EA (egg albumin) serum (Cappel Laboratories) 1 to 2 days preceding the experiment. […] Sensitized guinea-pigs were anaesthetized with intraperitoneal injection of urethane (1.5 g/kg). The right jugular vein was cannulated for the administration of the all agents and trachea was cannulated to record total pulmonary resistance. Guinea-pigs were artificially ventilated by a small animal respirator (Shinano, Model SN-480-7) set at a stroke volume of 4.5 ml and a rate of 50 breaths per min. […] The increase in air overflow volume was expresssed as a percentage of the maximum bronchoconstriction obtained by clamping off the trachea. Following surgical preparation, the animals were pretreated with indomethacin (0.2 mg/kg, 10 min), pyrilamine (2 mg/kg, 6 min) and propanolol (0.1 mg/kg, 5 min) prior to the EA challenge (0.1 or 10 mg/kg). All test compounds were administered intraveneously or orally before the EA challenge. Inhibition (%) of bronchoconstriction was determined as follows: Inhibition (%)=(1.0%-maximum bronchoconstriction in test/% maximum bronchoconstriction in control)×100. […] The number of test animals was 4 in the i.v. test and 6 in the p.o. test.
(a) The i.v. test: A test compound (2 mg/kg) was suspended or dissolved in 3% Tween 80 and intraveneously administered 1 min prior to the EA challlenge (10 mg/kg).

[2] = test system: LTC4; assay: LTC4 antagonism in isolated guinea-pig trachea (method (i)); format: cell-based; details: Cavia porcellus, 5 min; 10^-5 g/ml test compound, 5 min prior to LTC4 (2×10^-8 g/ml)
Experimental: (§2) (i) LTC4 and LTD4 antagonisms in guinea-pig trachea
(§3) Antagonisms for LTC4 and LTD4 were determined in isolated guinea-pig trachea prepared as spiral strip. Tracheal preparations were suspended under 1 g tension in 10 ml organ baths and they were incubated for 1 hr prior to use. Contractile responses to LTC4 (2×10^-8 g/ml) and LTD4 (2×10^-8 g/ml) were obtained after the maximal response to histamine (10^-4 M). Test compounds dissolved in 100% dimethyl sulfoxide were added to the organ baths (final concentration of 10^-5 g/ml or 10^-6 g/ml) 5 min prior to LTC4 and LTD4 addition, and then contractile responses to LTC4 and LTD4 were compared with those of control which was obtained from a paired trachea in the absence of test compounds. LTC4 - and LTD4 -induced contractions were expressed as a percentage of the maximal response to histamine. The antagonism was determined as follows:
(§4) Antagonism (%)=(1.0-% contraction in test/% contraction in control)×100

[3] = test system: LTD4; assay: LTD4 antagonism in isolated guinea-pig trachea (method (i)); format: cell-based; details: Cavia porcellus, 5 min; for inhibition at 10 µg/mL: 10^-5 g/ml test compound, 5 min prior to LTD4 (2×10^-8 g/ml); for inhibition at 1 µg/mL: 10^-6 g/ml test compound, Test method (i) (asterisk in Table 4), 5 min prior to LTD4
Experimental: as §2, §3, §4

[4] = test system: ddY strain male mice; assay: Acute toxicity test, intraperitoneal (Test method-(1)); format: in vivo; details: 7 days
Experimental: The lethal ratio was determined in ddY strain male mice (4 weeks old) at 7 days after the intraperitoneal injection of test compounds.

[5] = test system: antigen-induced anaphylactic bronchoconstriction in passively sensitized guinea-pig; assay: Anaphylactic bronchoconstriction in passively sensitized guinea-pig, p.o. test; format: in vivo; details: for Inhibition (%) of bronchoconstriction: 2 hours prior to EA challenge (0.2 mg/kg)
Experimental: as §1
Male guinea-pigs (350-450 g) were passively sensitized with intravenous (i.v.) injection of 0.125 ml rabbit anti-EA (egg albumin) serum (Cappel Laboratories) 1 to 2 days preceding the experiment. Antigen-induced anaphylactic bronchoconstrictions were measured by modified method of Konzett and Rossler (Arch. Exp. Path. Pharmak., 195, 71, 1940). Sensitized guinea-pigs were anaesthetized with intraperitoneal injection of urethane (1.5 g/kg). The right jugular vein was cannulated for the administration of the all agents and trachea was cannulated to record total pulmonary resistance. Guinea-pigs were artificially ventilated by a small animal respirator (Shinano, Model SN-480-7) set at a stroke volume of 4.5 ml and a rate of 50 breaths per min. The change in pulmonary resistance was measured with a pressure transducer (Nihon Kohden, Model TP-602T) connected to a T-tube on the tracheal cannula. The increase in air overflow volume was expresssed as a percentage of the maximum bronchoconstriction obtained by clamping off the trachea. Following surgical preparation, the animals were pretreated with indomethacin (0.2 mg/kg, 10 min), pyrilamine (2 mg/kg, 6 min) and propanolol (0.1 mg/kg, 5 min) prior to the EA challenge (0.1 or 10 mg/kg). All test compounds were administered intraveneously or orally before the EA challenge. Inhibition (%) of bronchoconstriction was determined as follows: Inhibition (%)=(1.0%-maximum bronchoconstriction in test/% maximum bronchoconstriction in control)×100. The maximum bronchoconstriction was btained within 30 min after the EA challenge. The number of test animals was 4 in the i.v. test and 6 in the p.o. test.
(b) The p.o. test: A test compound was suspended in 5% gum arabic and orally administered 2 hours prior to the EA challenge (0.2 mg/kg). The reaction of the control was 62±6%.

[6] = test system: ddY strain male mice; assay: Acute toxicity test, oral (Test method-(2)); format: in vivo; details: 7 days
Experimental: The lethal ratio was determined in ddY strain male mice (4 weeks old) at […] 7 days after the oral administration of test compounds.

[7] = test system: LTD4; assay: LTD4 antagonism in isolated guinea-pig trachea with indomethacin (method (ii)); format: cell-based; details: Cavia porcellus, 0.5 h, 10^-6 g/ml test compound, 30 min prior to LTD4
Experimental: (ii) LTD4 antagonism in guinea-pig trachea
Antagonism for LTD4 was determined in isolated guinea-pig trachea prepared as spiral strip. Tracheal preparations were suspended under 1 g tension in 10 ml organ baths containing […] of indomethacin and they were incubated for 1 hr prior to use. Contractile responses to LTD4 (2×10^-8 g/ml) were obtained after the maximal respone to hitamine (10^-4 M). Test compounds dissolved in 100% dimethyl sulfoxide were added to the organ baths (final concentration of 10^-6 g/ml) 30 min prior to LTD4 addition, and then contractile responses to LTD4 were compared with those of control which was obtained from a paired trachea in the absence of test compounds. LTD4 -induced contractions were expressed as a percentage of the maximal response to histamine. The antagonism was determined as follows:
as §4

SMILES	Inhibition (%) of bronchoconstriction [1] [%]	inhibition at 10 µg/mL [2] [%]	inhibition at 10 µg/mL [3] [%]	Lethal ratio (Death number/Experimental number) ([4]; i.p. 200 mg/kg)	Lethal ratio (Death number/Experimental number) ([4]; i.p. 400 mg/kg)	inhibition at 1 µg/mL [3] [%]	other results
COc1cccc(CNc2cnn(C3CCCC3)c(=O)c2Cl)c1 [Compound No. 3, 4-Chloro-5-(3-methoxybenzylamino)-2-cyclopentyl-3(2H)pyridazinone]	31	97	82	0/2	0/1		
COc1ccc(CNc2cnn(CC(=O)O)c(=O)c2Cl)cc1OC [Compound No. 10, 4-Chloro-5-(3,4-dimethoxybenzylamino)-2-(carboxymethyl)-3(2H)pyridazinone]		29	20				
CCOc1cc(CNc2cnn(C)c(=O)c2Cl)ccc1OC [Compound No. 13]	19	81	79	0/2	0/1		
CCCCOc1cc(CNc2cn[nH]c(=O)c2Br)ccc1OC [Compound No. 38]						80	Inhibition (%) of bronchoconstriction ([5]; p.o. 30 mg/kg): 53%; Lethal ratio (Death number/Experimental number) ([6]; oral 400 mg/kg): 0/3; Lethal ratio (Death number/Experimental number) ([6]; oral 800 mg/kg): 0/3
CCCc1c(OCC(O)COc2ccc3c(=O)cc(C(=O)O)oc3c2CCC)ccc(C(C)=O)c1O (stereo not drawn) [FPL-55712, reference compound]	27	100	97			76	inhibition at 1 µg/mL [7]: 94%; Inhibition of bronchoconstriction (in words) ([5]; p.o. 100 mg/kg): No substantial inhibition
CCOc1cc(CNc2cn[nH]c(=O)c2Br)ccc1OC [compound 36]						70	Inhibition (%) of bronchoconstriction ([5]; p.o. 50 mg/kg): 68%

— patent US4892947A, “3(2H)Pyridazinone, process for its preparation and anti-allergic agent containing it” (Nissan Chemical Industries Ltd., priority 1985, dated 1990)
